One compound from patent publication US8003343B2, “Method for determining diamine oxidase” (Sciotec Diagnostic Technologies GmbH, priority 2005, dated 2011) can be followed below.

For the experiment, the target named is diamine oxidase (DAO; EC 1.4.3.6) (Homo sapiens, UniProt P19801). Nature of the experiment: biochemical. As to the method:
The sample is contacted and mixed with the given amount of diamine preferably dissolved in an aqueous solution. It is, of course, also possible to directly add a given amount of diamine to a defined amount of sample (e.g. in crystal form). […] After having incubated this mixture for a fixed period during which the diamine contained in the aqueous solution is degraded in the presence of DAO as a function of the amount of the latter, the diamine remaining in the mixture is derivatized by 95%, preferably 99%, even more preferred 99.5%, in particular 100%. The incubation conditions must be selected such that the DAO possibly present in the sample is able to convert the present diamine. DAO is an enzyme which converts diamine substrates such as, e.g. histamine, at such reaction rates that the incubation time will preferably last for at least 30 minutes.
FIG. 3 depicts the relative enzymatic activity of a defined amount of DAO in a sample as a function of the amount of histamine used.

diamine oxidase (DAO; EC 1.4.3.6), sequence (P19801 20-751, species assumed): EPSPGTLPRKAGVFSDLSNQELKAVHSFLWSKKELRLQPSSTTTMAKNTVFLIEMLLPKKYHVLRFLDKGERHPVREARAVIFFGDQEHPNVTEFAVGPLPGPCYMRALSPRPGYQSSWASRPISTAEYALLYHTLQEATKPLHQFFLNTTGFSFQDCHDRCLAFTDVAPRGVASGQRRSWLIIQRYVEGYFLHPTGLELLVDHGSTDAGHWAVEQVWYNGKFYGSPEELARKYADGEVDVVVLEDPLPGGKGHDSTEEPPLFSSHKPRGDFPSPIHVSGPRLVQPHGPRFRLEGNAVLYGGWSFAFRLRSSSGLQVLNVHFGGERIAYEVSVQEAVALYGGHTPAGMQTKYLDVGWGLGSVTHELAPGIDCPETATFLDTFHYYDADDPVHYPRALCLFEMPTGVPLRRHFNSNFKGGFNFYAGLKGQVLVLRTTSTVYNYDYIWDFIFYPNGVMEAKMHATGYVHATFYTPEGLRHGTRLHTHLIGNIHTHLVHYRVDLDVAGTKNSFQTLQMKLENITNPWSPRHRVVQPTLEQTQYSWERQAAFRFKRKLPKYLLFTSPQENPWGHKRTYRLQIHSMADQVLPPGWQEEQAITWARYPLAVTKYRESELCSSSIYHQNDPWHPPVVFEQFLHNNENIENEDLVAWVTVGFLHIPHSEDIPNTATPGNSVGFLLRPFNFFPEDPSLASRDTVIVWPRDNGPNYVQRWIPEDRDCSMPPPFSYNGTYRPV

In general, inhibition refers to how much of the control response was suppressed. Regarding `NCCc1c[nH]cn1` [histamine, 1H-imidazole-4-ethylamine], the “inhibition of DAO” value (addition of at least 100 μM histamine) was “at least partially inhibited”. The inhibition at 500 µM (read-out: inhibition of DAO) was approximately 60%.
